Test in all cases: growth of human tumour cells (NCI), 48 h
Assay [1] relates to 786-0.
Assay [2] concerns BT-549.
The subject of assay [3] is DU-145.
Assay [4] deals with HCT-116.
For assay [5], the system named is HOP-62.
Assay [6] concerns K562.
Assay [7] concerns LOX IMVI.
Assay [8] deals with M14.
The test system of assay [9] is MCF7.
In assay [10] the test system is MDA-MB-435.
Assay [11] relates to MDA-N.
Assay [12] concerns NCI-H460.
The test system of assay [13] is OVCAR-3.
Assay [14] has as its system SK-OV-3.
The test system of assay [15] is SN12C.
Assay [16] relates to SW-620.
For assay [17], the system named is T47D.
Assay [18] relates to UACC-62.
For assay [19], the system named is MOLT-4.
Assay [20] has as its system NCI-H522.

Molecules are shown by their SMILES.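 Five concentrations, 48 hours, 96-well plates. The concentration for 50% growth inhibition is given as GI50.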 Activity calls are given as the source filed them. No stated cut-off is given here; in the data, active = GI50 up to about 1.1 µM and inactive = higher.

On to `COc1ccc(-n2cnc3c(NC(Cc4ccccc4)C(=O)O)ncnc32)cc1` (stereo unspecified), for which the GI50 in assay [1], in assay [2], in assay [3], in [4], in assay [5] and in assay [6] was > 100 µM (inactive) each time. For the same compound, the GI50 in assay [7], in [8], in assay [9], in assay [10], in assay [11] and in assay [12] was > 100 µM (inactive) in each case. Moreover, the GI50 in assay [13] is > 100 µM (inactive); in assay [14] it was > 100 µM (inactive); in assay [15], > 100 µM (inactive); in [16] it was > 100 µM (inactive); in assay [17], 92.7 µM (inactive); in [18], > 100 µM (inactive).
For the compound `C=C(C)COC(=O)COCC(=O)OCC(=C)C`, the GI50 in assay [1], in assay [2], in [3], in assay [4], in assay [5] and in assay [6] was > 100 µM (inactive) in each case. Further, the GI50 in assay [8], in assay [9], in assay [10], in [11], in assay [19] and in assay [12] was > 100 µM (inactive) in each case. Also, the GI50 in assay [13], in [14], in assay [15], in [16], in assay [17] and in assay [18] was > 100 µM (inactive) throughout.
On to `CN(Cc1c[n+]([O-])c2nc(N)nc(N)c2n1)c1ccc(C(=O)NC23CC4CC(CC(C4)C2)C3)cc1`, for which the GI50 in assay [1] was > 100 µM (inactive); in assay [2] it was 28.2 µM (inactive); in assay [3], > 100 µM (inactive); in [4] it was > 100 µM (inactive); in assay [5] it was > 100 µM (inactive); in assay [6] it was 48.9 µM (inactive). Also, the GI50 in assay [7] was > 100 µM (inactive); in assay [8], > 100 µM (inactive); in assay [9], 47.8 µM (inactive); in assay [10], 77.4 µM (inactive); in [11], 70.6 µM (inactive); in assay [19], 32.7 µM (inactive). In addition, the GI50 in [12] was > 100 µM (inactive); in assay [13] it was > 100 µM (inactive); in assay [14], > 100 µM (inactive); in assay [15], > 100 µM (inactive); in assay [16], > 100 µM (inactive); in assay [17] it was 75.2 µM (inactive). Further, in assay [18], the GI50 was > 100 µM (inactive).
For `Cc1ccc(S(=O)(=O)N2CC2CCCCC=O)cc1` (stereo unspecified), the GI50 in assay [1] is 40.6 µM (inactive); in assay [2], > 100 µM (inactive); in assay [3] it was > 100 µM (inactive); in assay [4], 57 µM (inactive); in assay [5], > 100 µM (inactive); in [6], 32.6 µM (inactive). Moreover, the GI50 is 20.1 µM (inactive) in assay [7]; 51.3 µM (inactive) in [8]; > 100 µM (inactive) in [10]; > 100 µM (inactive) in [11]; 37.4 µM (inactive) in [19]; 72.8 µM (inactive) in assay [20]. Besides, the GI50 in [13] is > 100 µM (inactive); in [14] it was > 100 µM (inactive); in assay [15], > 100 µM (inactive); in [16], 52.7 µM (inactive); in assay [17], > 100 µM (inactive); in assay [18], 50.7 µM (inactive).
`COc1ccc(/C(=N\Nc2ccccn2)c2ccccn2)cc1`: the GI50 is < 0.0162 µM (active) in [1]; 0.818 µM (active) in [2]; 0.29 µM (active) in [3]; < 0.01 µM (active) in [4]; 0.217 µM (active) in assay [5]; < 0.0107 µM (active) in [6]. Also, the GI50 is < 0.01 µM (active) in assay [8]; < 0.01 µM (active) in assay [9]; 0.156 µM (active) in assay [10]; 0.631 µM (active) in assay [11]; < 0.01 µM (active) in assay [19]; < 0.0287 µM (active) in assay [12]. Moreover, the GI50 in [20] is < 0.01 µM (active); in assay [13], < 0.01 µM (active); in assay [14], 0.107 µM (active); in [15], < 0.01 µM (active); in assay [16], < 0.01 µM (active); in assay [18], 0.104 µM (active).
On to `N#CC1(C#N)C2CCCCC23OC(=N)C1(C#N)C(c1ccccc1)O3` (stereo unspecified), for which the GI50 in assay [1] was 14.6 µM (inactive); in assay [2], 16.8 µM (inactive); in assay [3] it was 20.5 µM (inactive); in assay [4], 17 µM (inactive); in assay [6], 7.11 µM (inactive); in assay [7] it was 17.3 µM (inactive). Besides, the GI50 in [8] is 12.7 µM (inactive); in assay [9], 16.6 µM (inactive); in [10], 25.6 µM (inactive); in assay [11], 14 µM (inactive); in assay [19] it was 25.1 µM (inactive); in assay [12] it was 19 µM (inactive). Besides, the GI50 in assay [13] was 13.6 µM (inactive); in assay [14], > 100 µM (inactive); in assay [15], 13.1 µM (inactive); in assay [16], 14.8 µM (inactive); in assay [17], 17.5 µM (inactive); in assay [18] it was 17.9 µM (inactive).
For the compound `COC(=O)C1=C(O)C(C(=O)OC)[C@]2(O)[C@H](C(=O)OC)[C@H]1C[C@@H](c1cccc(OC)c1)[C@H]2C(=O)OC` (stereo partly specified), the GI50 is 20.7 µM (inactive) in assay [1]; 30.6 µM (inactive) in assay [2]; 22.2 µM (inactive) in assay [4]; 31 µM (inactive) in [5]; 28.4 µM (inactive) in assay [6]; 36.5 µM (inactive) in assay [7]. In addition, the GI50 in [8] is 29.7 µM (inactive); in assay [9], 23.4 µM (inactive); in assay [10], 17.5 µM (inactive); in assay [11], 15.6 µM (inactive); in [19] it was 20.4 µM (inactive); in assay [12] it was 22.2 µM (inactive). The GI50 in assay [20] was 6.1 µM (inactive); in assay [14] it was 28.2 µM (inactive); in assay [15], 22.9 µM (inactive); in assay [16], 21.5 µM (inactive); in [17], 30.5 µM (inactive); in [18], 16.9 µM (inactive).
On to `O=[N+]([O-])c1ccc(O)c(/C=N/CC2CCCN3CCCCC23)c1` (stereo unspecified), for which the GI50 in [1] was 38.8 µM (inactive); in [2], 38.6 µM (inactive); in [3], 42.2 µM (inactive); in assay [4] it was 44.2 µM (inactive); in assay [5], 83.4 µM (inactive); in [7] it was 38.8 µM (inactive). In addition, the GI50 was 19.6 µM (inactive) in [8]; 46.8 µM (inactive) in assay [9]; 44.8 µM (inactive) in assay [11]; 45.8 µM (inactive) in assay [12]; 26 µM (inactive) in assay [20]; 31 µM (inactive) in [13]. Further, the values for the GI50 in [14] and in assay [18] were 29.6 µM (inactive) and 27.9 µM (inactive), respectively.
Regarding `C[C@@H](NC(C#N)c1ccco1)c1ccccc1` (stereo partly specified), the GI50 in [1], in [2], in assay [3], in [4], in [5] and in assay [6] was > 100 µM (inactive) each time. The GI50 in assay [8], in assay [9], in assay [10], in [11], in assay [19] and in assay [12] was > 100 µM (inactive) throughout. Moreover, the GI50 in assay [13], in [14], in assay [15], in assay [16], in assay [17] and in assay [18] was > 100 µM (inactive) in each case.
As for `COc1cc([N+](=O)[O-])c(S(=O)(=O)O)cc1-n1nc(C(=O)Nc2ccccc2)n[n+]1-c1cc(S(=O)(=O)[O-])c([N+](=O)[O-])cc1OC`, the GI50 in [1] is > 100 µM (inactive); in [2], > 100 µM (inactive); in [3], > 100 µM (inactive); in assay [4], > 100 µM (inactive); in [5], > 100 µM (inactive); in assay [6], 88.7 µM (inactive). Moreover, the GI50 was 9.84 µM (inactive) in [7]; > 100 µM (inactive) in [8]; > 100 µM (inactive) in assay [9]; 85.5 µM (inactive) in assay [10]; > 100 µM (inactive) in [11]; > 100 µM (inactive) in [19]. Moreover, the GI50 in assay [12], in assay [20], in assay [13], in [14], in [15] and in [16] was > 100 µM (inactive) in each case. In addition, the GI50 in assay [18] was 42.2 µM (inactive).
Take `O=S(=O)(O)c1cc(S(=O)(=O)O)c2c(/N=N/c3ccc(S(=O)(=O)O)c4ccccc34)c(O)ccc2c1`: the GI50 in assay [1], in assay [2], in assay [3], in assay [4], in [5] and in assay [6] was > 100 µM (inactive) each time. In addition, the GI50 in assay [7], in assay [8], in [10], in assay [11], in [19] and in assay [20] was > 100 µM (inactive) throughout. Moreover, the GI50 in assay [13], in assay [14], in assay [15], in [16], in assay [17] and in [18] was > 100 µM (inactive) each time.

These data come from ChEMBL document CHEMBL1201862, “PubChem BioAssay data set” (2004).
